Data set [1] relates to Splenocytes treated with αGalCer. Description: Suppression of αGalCer-induced inflammation (splenocytes in vitro). The class given is cell-based, mouse. To be noted: splenocytes treated concurrently with compound and αGalCer (FIG. 5). Here is the method:
FIG. 5. […] Splenocytes were treated concurrently with the compounds of the invention and αGalCer to assess the suppressive function of compounds on αGalCer-induced inflammation, with several compounds showing prominent suppressive function.
(§1) The whole spleen was surgically removed from a mouse and mechanically dissociated into a single cell suspension of splenocytes, which were then cultured in the complete RPMI 1640 medium (cRPMI). Human peripheral blood mononuclear cells (PBMCs) from healthy volunteers were collected from whole blood through gradient-centrifugation with Histopaque-1077 (Sigma-Aldrich).
Splenocytes were treated concurrently with the compounds of the invention and αGalCer to assess their ability to suppress αGalCer-induced inflammation.

Data set [2] deals with Splenocytes treated with LPS. Put plainly: Suppression of LPS-induced inflammation (splenocytes in vitro). The class given is cell-based, mouse. Particulars: splenocytes treated concurrently with compound and LPS (FIG. 1). How it is done: FIG. 1. […] Splenocytes were treated concurrently with the compounds of the invention and LPS to assess the suppressive function of compounds on LPS-induced inflammation, with several compounds showing prominent suppressive function.
as §1
Splenocytes were treated concurrently with the compounds of the invention and LPS to assess the suppressive function of compounds on LPS-induced inflammation.

In data set [3] the test system is Splenocytes. Put plainly: Immune-stimulating function of compounds alone (splenocytes in vitro). The data set is classed as cell-based, mouse. Particulars: for Th1/Th2 bias: concluded from IFNγ and IL-4 secretion of splenocytes (FIG. 6); for IFNγ secretion / IL-4 secretion: splenocytes treated with compound alone (FIG. 6). Here is the method: FIG. 6. […] Splenocytes were treated with the compounds of the invention alone to assess the immune-stimulating function of the compounds. Compounds 12, 18, 22, 27, and 29 induced significant IFNγ secretion, and compound 8 induced significant IL-4 secretion.
as §1
Splenocytes were treated with the compounds of the invention alone to assess the immune-stimulating function of the compounds by measuring their ability to promote the secretions of IFN-γ and IL-4.

Data set [4] concerns OVA-induced AHR mouse model. Put plainly: Suppression of OVA-induced airway hyperreactivity (AHR) in vivo. Particulars: OVA-induced AHR mouse model (FIG. 7). Here is the method:
FIG. 7. […] The capability of selected compounds 8, 12, 18, and 27 in suppressing Th2 inflammation in vivo was assessed using the OAV-induced AHR mouse model.
(§2) For ovalbumin (OVA) challenge, mice were sensitized intraperitoneally (i.p.) with 50 μg of OVA with 2% alhydrogel adjuvant (InvivoGen). Mice were challenged three times with 50 μg of OVA on day 7 post-sensitization, either daily or every other day. Mice were sacrificed the day after the last OVA challenge. The scheme of the OT-1 adoptive transfer mouse model for examining the proliferation of CD8^+ T cells in adjuvanting OVA challenge is described in FIG. 13.
Mice were anesthetized with 100 mg per kg body weight pentobarbital (Sigma-Aldrich), tracheotomised and mechanically ventilated via the FinePointe RC system (Buxco Research Systems, Wilmington, NC). Lung function was assessed by measuring lung resistance and dynamic compliance in response to increasing doses of aerosolized methacholine (1.25-40 mg/mL, Sigma-Aldrich).
(§3) Using the Th2 OVA-induced AHR mouse model, we assessed the capability of selected compounds 8, 12, 18, and 27 in suppressing Th2 inflammation.

Data set [5] concerns OVA-induced AHR mouse model. Put plainly: Suppression of OVA-induced airway inflammation in vivo (IL-13 and IL-4 in BALF and lungs). Particulars: OVA-induced AHR experiment; for IL-4 protein level in lungs / IL-13 protein level in lungs: lung protein (FIG. 9); for IL-4 level in BALF / IL-13 level in BALF: bronchoalveolar lavage fluid (FIG. 8). How it is done: FIG. 8. […] The bronchoalveolar lavage fluid (BALF) from mice in the OAV-induced AHR experiment was examined forth IL-13 and IL-4 levels.
FIG. 9. […] The lungs from mice in the OAV-induced AHR experiment was examined for their IL-13 and IL-4 protein level.
FIG. 10. […] The lungs from mice in the OAV-induced AHR experiment was examined for their IL-13 and IL-4 mRNA levels.
as §2
Upon exposure of the trachea, the lungs were lavaged twice with 1 mL of PBS supplemented with 2% fetal calf serum (FCS). BALF was pooled and bronchoalveolar (BAL) cells were pelleted by centrifugation and fixed onto cytospin slides. The slides were stained with Diff-Quik solution (Polysciences Inc) and BAL differential cell count was performed.
as §3

In data set [6] the test system is B6 mice. Description: Adjuvancy function in vivo (serum IFNγ and IL-4 after injection). Here is the method: FIG. 11. […] The adjuvancy capability of the selected compounds 8, 12, 18, 27, and 29 in vivo was assessed by measuring the serum level of IFNγ and IL-4 induced after injecting them into B6 mice.
Besides assessing the ability of the new compounds to suppress inflammation, we also looked into their function to act as adjuvants, i.e. their ability to promote desirable immunological trends in the development of vaccines. We measured the in vivo adjuvancy capability of selected compounds 8, 12, 18, 27, and 29 in inducing IFNγ and IL-4 in B6 mice (FIG. 11).

Data set [7] deals with glycosidases of human fibroblast lysates. Description: Stability of the glycosidic linkage to glycosidases upon incubation with human fibroblast lysates. The data set is classed as in vitro ADME. Particulars: 4 h, 37° C., compound solution 200 μM, 0.1 M citrate buffer pH 4.5. How it is done:
The stability of the glyosidic linkage in compounds 2, 4, 6, 8, 10, 12, 14, 16, 18, 20, 22, 23, 25, 27 and 29, selected as representative examples, upon incubation with human fibroblast lysates for 4 h was checked. For such purpose, cells were scraped into ice-cold H2O (10^6 cells mL^−1) and lysed by sonication. Insoluble materials were removed by centrifugation at 15,000 rpm for 5 min and protein concentrations were determined with Protein Assay Rapid Kit (WAKO, Tokyo, Japan). 10 μL of the lysates in 0.1% Triton X-100 in distilled water were incubated at 37° C. with 20 μL of the compound solution (200 μM) in 0.1 M citrate buffer, pH 4.5. In control experiments, the activity of several lysosomas glycosidases was confirmed using fluorescent substrates. The substrates were 4-methylumbelliferone (4-MU)-conjugated β-D-glucopyranoside (for GCase), α-D-glucopyranoside (for α-glucosidase), α-D-galactopyranoside (for α-Galase) and β-D-galactopyranoside (for β-galactosidase). The liberated 4-methylumbelliferone was measured in the black-well plate with a Perkin Elmer Luminescence Spectrometer (excitation wavelength: 340 nm; emission: 460 nm).

The test system of data set [8] is bone marrow-derived macrophages (BMDM) treated with LPS. Description: Suppression of LPS-induced inflammation in bone marrow-derived macrophages (BMDM in vitro). The class given is cell-based. To be noted: LPS-induced, BMDM (FIG. 2). An excerpt:
Since macrophage is the major responder to LPS-induced inflammation, we assessed the capability of selected compounds to suppress LPS-induced inflammation in bone marrow-derived macrophages (BMDM).

The mark [9] stands for this setting: 2 hours after injection (FIG. 11).
[10] abbreviates: 18 hours after injection (FIG. 11).

This is an account of results in US20250154165A1, “MULTIANTENNARY GLYCOLIPID MIMETICS” (CONSEJO SUPERIOR DE INVESTIGACIONES CIENTÍFICAS (CSIC), priority 2021, published 2025).

Each structure is given as a SMILES string.

Consider `CCCCCCCCCCCCCCCCCCCCCCCCCC(=O)N[C@@H](CO[C@@H]1C(O)[C@@H](O)[C@H](O)C2COC(=O)N21)[C@H](O)[C@H](O)CCCCCCCCCCCCCC` (some centres unmarked) [Compound 2], for which the “suppressive function on αGalCer-induced inflammation” value in data set [1] is on record as “prominent inflammation-suppressing function”.
The same measure, in the same setting: under `CCCCCCCCCCCCCCCCCCCCCCCCCC(=O)N[C@@H](CO[C@@H]1C(O)[C@@H](O)[C@@H](O)C2COC(=O)N21)[C@H](O)[C@H](O)CCCCCCCCCCCCCC` (some centres unmarked) [Compound 6] stands “prominent inflammation-suppressing function”.
On to `CCCCCCCCCCCCCC[C@@H](O)[C@@H](O)[C@H](CO[C@@H]1C(O)[C@@H](O)[C@@H](O)C2COC(=O)N21)n1cc(CCCCCCCC)nn1` (some centres unmarked) [Compound 8], for which the “suppressive function on LPS-induced inflammation” value in data set [2] is recorded as “prominent inflammation-suppressing function”. In data set [3], the Th1/Th2 bias entry is “Th2-biased”, the IFNγ secretion result was “not IFNγ” and the IL-4 secretion entry is given as “proficient at inducing IL-4 secretion”. Moreover, in data set [4], the “suppression of airway hyperreactivity (AHR)” value is on record as “can suppress AHR onset”. In data set [5], the “IL-4 protein level in lungs” value is given as “only showed significant suppression on IL-13” and the “IL-13 protein level in lungs” value is recorded as “significant suppression”. In addition, in data set [6] (setting [9]), the “serum level of IFNγ induced” value is recorded as “significant capability in inducing” and the “serum level of IL-4 induced” value is “significant capability in inducing”. Moreover, in data set [6] (setting [10]), the “serum level of IFNγ induced” value is “significant detectable level” and the “serum level of IL-4 induced” value is recorded as “significant detectable level”.
In the case of `CCCCCCCCCCCCCCC(O)C(O)C(COC1C(O)C(O)C(O)C2COC(=O)N21)n1cc(CCCCCCCCCCCC)nn1` (centres unmarked) [Compound 10], in data set [7], the “hydrolysis of the glycolipid mimetic (free polysubstituted 2-oxa-3-oxoindolizidine detected by gas chromatography)” value is on record as “No traces of the free polysubstituted 2-oxa-3-oxoindolizidine”. The “suppressive function on LPS-induced inflammation” value in data set [2] was “prominent inflammation-suppressing function”.
Take `CCCCCCCCCCCCNC(=O)[C@H](CO[C@@H]1C(O)[C@@H](O)[C@H](O)C2COC(=O)N21)NC(=S)NCCCCCCCC` (some centres unmarked) [Compound 14]: the “suppressive function on LPS-induced inflammation” value in data set [2] is reported as “prominent inflammation-suppressing function”.
Regarding `CCCCCCCCCCCCNC(=O)[C@H](CS[C@@H]1C(O)[C@@H](O)[C@H](O)C2COC(=O)N21)NC(=O)CCCCCCCCCCC` (some centres unmarked) [Compound 18], the “suppressive function on LPS-induced inflammation” value in data set [2] is on record as “prominent inflammation-suppressing function”. Further, in data set [3], the Th1/Th2 bias entry is on record as “Th1-biased”, the IFNγ secretion result is reported as “effective in promoting the productions of IFNγ” and the IL-4 secretion result is recorded as “not IL-4”. The “suppression of airway hyperreactivity (AHR)” value in data set [4] is listed as “can suppress AHR onset”. In addition, in data set [5], the “IL-4 level in BALF” value is “significant suppression”, the “IL-13 level in BALF” value is given as “only showed significant suppression on IL-4”, the “IL-4 protein level in lungs” value was “only showed significant suppression on IL-13” and the “IL-13 protein level in lungs” value is “significant suppression”. In data set [6] (setting [9]), the “serum level of IFNγ induced” value is on record as “significant serum IFNγ level” and the “serum level of IL-4 induced” value was “only showed significant serum IFNγ level”. For the same molecule, in data set [6] (setting [10]), the “serum level of IFNγ induced” value is “significant serum IFNγ level” and the “serum level of IL-4 induced” value is recorded as “only showed significant serum IFNγ level”.
On to `CCCCCCCCCCCCNC(=O)[C@H](CS[C@@H]1C(O)[C@@H](OCc2ccccc2)[C@H](O)C2COC(=O)N21)NC(=O)CCCCCCCCCCC` (some centres unmarked) [Compound 20], for which the “suppressive function on LPS-induced inflammation” value in data set [2] was “prominent inflammation-suppressing function”.
As for `CCCCCCCCCCCCCC(=O)N[C@@H](CS[C@@H]1C(O)[C@@H](O)[C@H](O)C2COC(=O)N21)C(=O)NCCCCCCCCCCCC` (some centres unmarked) [Compound 22], in data set [3], the Th1/Th2 bias result is on record as “Th1-biased”, the IFNγ secretion entry is “effective in promoting the productions of IFNγ” and the IL-4 secretion entry is listed as “not IL-4”.
In the case of `CCCCCCCCCCCCNC(=O)[C@H](CO[C@@H]1C(O)[C@@H](O)[C@@H](O)C2COC(=O)N21)NC(=O)CCCCCCCCCCC` (some centres unmarked) [Compound 27], in data set [8], the “suppression of IL-6” value was “significant suppression” and the “suppression of TNFα” value was “significant suppression”. In data set [3], the Th1/Th2 bias entry was “Th1-biased”, the IFNγ secretion result is “effective in promoting the productions of IFNγ” and the IL-4 secretion entry is “not IL-4”. In data set [5], the “IL-4 level in BALF” value is recorded as “only showed significant suppression on IL-13”, the “IL-13 level in BALF” value was “significant suppression”, the “IL-4 protein level in lungs” value is listed as “only showed significant suppression on IL-13” and the “IL-13 protein level in lungs” value is “significant suppression”. In data set [6] (setting [9]), the “serum level of IFNγ induced” value is reported as “significant capability in inducing” and the “serum level of IL-4 induced” value is given as “significant capability in inducing”. For the same molecule, in data set [6] (setting [10]), the “serum level of IFNγ induced” value is “significant detectable level” and the “serum level of IL-4 induced” value is recorded as “significant detectable level”.
As for `CCCCCCCCCCCCNC(=O)[C@H](CS[C@@H]1C(O)[C@@H](O)[C@@H](O)C2COC(=O)N21)NC(=O)CCCCCCCCCCC` (some centres unmarked) [Compound 29], in data set [3], the Th1/Th2 bias entry was “Th1-biased”, the IFNγ secretion entry is reported as “effective in promoting the productions of IFNγ” and the IL-4 secretion entry is recorded as “not IL-4”. Moreover, in data set [6] (setting [9]), the “serum level of IFNγ induced” value is “significant capability in inducing” and the “serum level of IL-4 induced” value is listed as “significant capability in inducing”. In addition, in data set [6] (setting [10]), the “serum level of IFNγ induced” value is recorded as “significant detectable level” and the “serum level of IL-4 induced” value was “significant detectable level”.
